Source: patent US7507730B2, “Substituted pyrazolo[1,5-a]pyrimidines as potassium channel activators” (Bristol-Myers Squibb Company, priority 2005, dated 2009)

Molecular target: Kv1.5 (Homo sapiens, UniProt P22460)
Assay: Kv1.5 inhibition assay (IKur inhibitor assay per cited references)
Format: cell-based
Settings: for Kv1.5% inhibition / inhibition at 0.3 µM: at 0.3 μM; for IC50: read-out: Kv1.5 IC50
Text: Assays to determine the degree of activity of a compound as an IKur inhibitor are well known in the art and are described in references such as J. Gen. Physiol. Apr.; 101 (4):513-43, and Br. J. Pharmacol. 1995 May; 115(2):267-74.

Chain of Kv1.5 (P22460 whole entry): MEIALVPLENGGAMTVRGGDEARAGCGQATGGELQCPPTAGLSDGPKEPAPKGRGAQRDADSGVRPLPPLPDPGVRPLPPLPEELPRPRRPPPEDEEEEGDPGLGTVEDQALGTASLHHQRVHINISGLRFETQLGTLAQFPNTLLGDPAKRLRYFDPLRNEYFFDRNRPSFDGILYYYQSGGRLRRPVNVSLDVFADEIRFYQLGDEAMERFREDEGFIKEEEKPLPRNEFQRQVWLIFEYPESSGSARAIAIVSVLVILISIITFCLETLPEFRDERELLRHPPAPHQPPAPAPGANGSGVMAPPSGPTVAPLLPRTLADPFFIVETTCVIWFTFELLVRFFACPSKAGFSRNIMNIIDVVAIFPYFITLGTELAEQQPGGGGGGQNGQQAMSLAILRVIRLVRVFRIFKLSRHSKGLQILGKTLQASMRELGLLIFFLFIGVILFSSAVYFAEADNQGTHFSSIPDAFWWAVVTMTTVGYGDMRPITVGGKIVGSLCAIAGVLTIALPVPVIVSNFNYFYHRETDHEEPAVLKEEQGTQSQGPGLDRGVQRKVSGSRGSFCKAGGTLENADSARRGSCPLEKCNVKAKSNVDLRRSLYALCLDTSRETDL

Row | Kv1.5% inhibition [%] | inhibition at 0.3 µM [%] | SMILES | also measured
1 | 37.7 |  | CC1=C(S(=O)(=O)NC(C)(C)C)C(c2ccc(Cl)c(Cl)c2)n2nc(C(F)(F)F)cc2N1 (single isomer, unassigned) [Example 58 Isomer 2, N-tert-Butyl-7-(3,4-dichlorophenyl)-5-methyl-2-(trifluoromethyl)-4,7-dihydropyrazolo[1,5-a]pyrimidine-6-sulfonamide] | 
2 | 72.7 |  | COc1ccc(S(=O)(=O)C2=C(C)Nc3cc(C(F)(F)F)nn3C2c2ccc(C)c(F)c2)cc1 (single isomer, unassigned) [Example 32 Isomer 2, 7-(3-Fluoro-4-methylphenyl)-6-(4-methoxyphenylsulfonyl)-5-methyl-2-(trifluoromethyl)-4,7-dihydropyrazolo[1,5-a]pyrimidine] | 
3 |  | 31 | CCN(C(=O)C1=C(C)Nc2cc(C(F)(F)F)nn2C1c1ccc(Cl)c(Cl)c1)S(=O)(=O)c1ccc(Cl)cc1 (single isomer, unassigned) [Example 93 Isomer 1, N-(4-Chlorophenylsulfonyl)-7-(3,4-dichlorophenyl)-N-ethyl-5-methyl-2-(trifluoromethyl)-4,7-dihydropyrazolo[1,5-a]pyrimidine-6-carboxamide] | 
4 |  | 48.6 | CC1=C(S(=O)(=O)NC(C)(C)C)C(c2ccc(Cl)cc2)n2nc(C(F)(F)F)cc2N1 (single isomer, unassigned) [Example 57 Isomer 1, N-tert-Butyl-7-(4-chlorophenyl)-5-methyl-2-(trifluoromethyl)-4,7-dihydropyrazolo[1,5-a]pyrimidine-6-sulfonamide] | 
5 |  | 83.6 | CC1=C(S(=O)(=O)c2ccc(Cl)cc2)C(c2ccc(F)cc2)n2nc(C(F)(F)F)cc2N1 (single isomer, unassigned) [Example 43 Isomer 1, 6-(4-Chlorophenylsulfonyl)-7-(4-fluorophenyl)-5-methyl-2-(trifluoromethyl)-4,7-dihydropyrazolo[1,5-a]pyrimidine] | 
6 |  | 30 | CC1=C(S(=O)(=O)N(C)c2ccccc2)C(c2ccc(Cl)c(Cl)c2)n2nc(C(F)(F)F)cc2N1 (single isomer, unassigned) [Example 63 Isomer 1, 7-(3,4-Dichlorophenyl)-N,5-dimethyl-N-phenyl-2-(trifluoromethyl)-4,7-dihydropyrazolo[1,5-a]pyrimidine-6-sulfonamide] | 
7 |  | 27.7 | CC1=C(S(=O)(=O)NCc2ccccc2)C(c2ccc(Cl)cc2)n2nc(C(F)(F)F)cc2N1 (racemic) [Example 54, N-Benzyl-7-(4-chlorophenyl)-5-methyl-2-(trifluoromethyl)-4,7-dihydropyrazolo[1,5-a]pyrimidine-6-sulfonamide] | 
8 |  | 42.9 | CC1=C(S(=O)(=O)NC(C)(C)C)C(c2ccc(Cl)c(Cl)c2)n2nc(C(F)(F)F)cc2N1 (single isomer, unassigned) [Example 58 Isomer 1, N-tert-Butyl-7-(3,4-dichlorophenyl)-5-methyl-2-(trifluoromethyl)-4,7-dihydropyrazolo[1,5-a]pyrimidine-6-sulfonamide] | 
9 | 27 |  | CCN(C(=O)C1=C(C)Nc2cc(C(F)(F)F)nn2C1c1ccc(Cl)c(Cl)c1)S(=O)(=O)c1ccc(Cl)cc1 (single isomer, unassigned) [Example 93 Isomer 2, N-(4-Chlorophenylsulfonyl)-7-(3,4-dichlorophenyl)-N-ethyl-5-methyl-2-(trifluoromethyl)-4,7-dihydropyrazolo[1,5-a]pyrimidine-6-carboxamide] | 
10 |  | 85.8 | CC1=C(S(=O)(=O)c2ccccc2)C(c2ccc(Cl)cc2)n2nc(C(F)(F)F)cc2N1 (single isomer, unassigned) [Example 26 Isomer 1, 7-(4-Chlorophenyl)-5-methyl-6-(phenylsulfonyl)-2-(trifluoromethyl)-4,7-dihydropyrazolo[1,5-a]pyrimidine] | 
11 |  | 69.2 | COc1ccc(S(=O)(=O)C2=C(C)Nc3cc(C(F)(F)F)nn3C2c2ccc(Cl)cc2)cc1OC (single isomer, unassigned) [Example 51 Isomer 1, 7-(4-Chlorophenyl)-6-(3,4-dimethoxyphenylsulfonyl)-5-methyl-2-(trifluoromethyl)-4,7-dihydropyrazolo[1,5-a]pyrimidine] | 

Second part, the compound before the results:

Row | SMILES | Kv1.5% inhibition [%] | inhibition at 0.3 µM [%] | also measured
12 | CC1=C(S(=O)(=O)C(C)C)C(c2ccc(Cl)c(Cl)c2)n2nc(C)cc2N1 (racemic) [Example 13, 7-(3,4-Dichlorophenyl)-6-(isopropylsulfonyl)-2,5-dimethyl-4,7-dihydropyrazolo[1,5-a]pyrimidine] |  | 15.4 | 
13 | CC1=C(C(=O)N(C)S(=O)(=O)c2ccc(Cl)cc2)C(c2ccc(Cl)c(Cl)c2)n2nccc2N1 (racemic) [Example 75, N-(4-Chlorophenylsulfonyl)-7-(3,4-dichlorophenyl)-N,5-dimethyl-4,7-dihydropyrazolo[1,5-a]pyrimidine-6-carboxamide] |  | 89 | 
14 | CC1=C(C(=O)N(C)S(=O)(=O)c2ccc3ccc(Cl)cc3c2)C(c2ccc(Cl)c(Cl)c2)n2nccc2N1 (racemic) [Example 76, N-(7-Chloronaphthalen-2-ylsulfonyl)-7-(3,4-dichlorophenyl)-N,5-dimethyl-4,7-dihydropyrazolo[1,5-a]pyrimidine-6-carboxamide] |  | 38 | 
15 | CC1=C(S(=O)(=O)c2ccccn2)C(c2ccc(Cl)c(Cl)c2)n2nc(C)cc2N1 (single isomer, unassigned) [Example 11 Isomer 1, 7-(3,4-Dichlorophenyl)-2,5-dimethyl-6-(pyridin-2-ylsulfonyl)-4,7-dihydropyrazolo[1,5-a]pyrimidine] | 72.5 |  | 
16 | CC1=C(S(=O)(=O)C2CCCCC2)C(c2ccc(Cl)cc2)n2nc(C(F)(F)F)cc2N1 (single isomer, unassigned) [Example 29 Isomer 1, 7-(4-Chlorophenyl)-6-(cyclohexylsulfonyl)-5-methyl-2-(trifluoromethyl)-4,7-dihydropyrazolo[1,5-a]pyrimidine] |  |  | IC50: 204 nM
17 | CCN(C(=O)C1=C(C)Nc2cc(C)nn2C1c1ccc(Cl)c(Cl)c1)S(=O)(=O)c1c(C)noc1C (single isomer, unassigned) [Example 97 Isomer 2, 7-(3,4-Dichlorophenyl)-N-(3,5-dimethylisoxazol-4-ylsulfonyl)-N-ethyl-2,5-dimethyl-4,7-dihydropyrazolo[1,5-a]pyrimidine-6-carboxamide] | 50 |  | 
18 | CC1=C(S(=O)(=O)N2CCCCC2)C(c2ccc(Cl)c(Cl)c2)n2nc(C(F)(F)F)cc2N1 (single isomer, unassigned) [Example 65 Isomer 1, 7-(3,4-Dichlorophenyl)-5-methyl-6-(piperidin-1-ylsulfonyl)-2-(trifluoromethyl)-4,7-dihydropyrazolo[1,5-a]pyrimidine] |  | 81 | 
19 | CCCCS(=O)(=O)C1=C(C)Nc2cc(C)nn2C1c1ccc(Cl)c(Cl)c1 (single isomer, unassigned) [Example 18 Isomer 2, 6-(Butylsulfonyl)-7-(3,4-dichlorophenyl)-2,5-dimethyl-4,7-dihydropyrazolo[1,5-a]pyrimidine] | 28.8 |  | 
20 | COc1ccc(NS(=O)(=O)C2=C(C)Nc3cc(C)nn3C2c2ccc(Cl)c(Cl)c2)cc1 (racemic) [Example 37, 7-(3,4-Dichlorophenyl)-N-(4-methoxyphenyl)-2,5-dimethyl-4,7-dihydropyrazolo[1,5-a]pyrimidine-6-sulfonamide] |  | 25 | 
21 | CC1=C(C(=O)N(C)S(=O)(=O)C2CC2)C(c2ccc(Cl)c(Cl)c2)n2nc(C(F)(F)F)cc2N1 (single isomer, unassigned) [Example 98 Isomer 1, N-(Cyclopropylsulfonyl)-7-(3,4-dichlorophenyl)-N,5-dimethyl-2-(trifluoromethyl)-4,7-dihydropyrazolo[1,5-a]pyrimidine-6-carboxamide] |  |  | IC50: 112 nM
22 | COc1ccc(S(=O)(=O)C2=C(C)Nc3cc(C)nn3C2c2ccc(Cl)cc2)cc1 (single isomer, unassigned) [Example 19 Isomer 1, 7-(4-Chlorophenyl)-6-(4-methoxyphenylsulfonyl)-2,5-dimethyl-4,7-dihydropyrazolo[1,5-a]pyrimidine] |  |  | IC50: 55 nM
23 | CC1=C(C(=O)N(C)S(=O)(=O)c2ccccc2)C(c2ccc(Cl)c(Cl)c2)n2nc(C(F)(F)F)cc2N1 (single isomer, unassigned) [Example 90 Isomer 2, 7-(3,4-Dichlorophenyl)-N,5-dimethyl-N-(phenylsulfonyl)-2-(trifluoromethyl)-4,7-dihydropyrazolo[1,5-a]pyrimidine-6-carboxamide] | 51 |  | 
